These results are taken from the supplement of paper PMC10011410.

± gives the standard deviation of the averaged measurements.

Holding throughout (conditions): 24 h
The test system of assay [1] is U-2 OS. Put plainly: cell viability (CellTiter-Glo) relative to DMSO (% of control); higher = more viable. The protocol: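 Cell viability of U-2 OS cells by CellTiter-Glo after 24 h compound treatment at 5, 10 and 20 uM (some at 40 and 80 uM), measured in parallel with the glutathione assay, as percent of DMSO control. Five technical replicate plates, averaged.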
In general terms: ATP-based viability assays read luminescence as a measure of living cells.

Assay [2] has as its system U-2 OS. Nature of the assay: relative cell count vs DMSO (cell painting) (fraction of DMSO control); higher = more cells remaining (less cytotoxic). Summed up:
(§1)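 Using 384-well plates holding about 1,500 U-2 OS cells per well, treatment was applied by pin tool for 24 h at 37 °C, generally at six 2-fold concentrations ranging from 20 μM to 625 nM. Staining with MitoTracker, concanavalin A, phalloidin, wheat germ agglutinin, Hoechst and SYTO 14 preceded Opera Phenix imaging and CellProfiler feature extraction against DMSO cells on the same plate. Activity score and cell count are both referenced to DMSO wells, the former as a Mahalanobis distance. Four replicate plates were averaged for every value.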

Assay [3] concerns U-2 OS. Put plainly: cell painting activity score (Mahalanobis distance from DMSO wells); higher = stronger morphological phenotype. Summed up: as §1
For assay [4], the system named is U-2 OS. Nature of the assay: intracellular GSH:GSSG ratio (calculated); higher = more reduced glutathione pool. On the procedure:
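Intracellular glutathione in U-2 OS cells after 24 h compound treatment at 5, 10 and 20 uM (some at 40 and 80 uM). Total glutathione and GSSG were measured with the GSH/GSSG-Glo kit, and the GSH:GSSG ratio was calculated. Mean of five technical replicate plates.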

Assay [5] deals with U-2 OS. Put plainly: total intracellular glutathione (GSH + GSSG) relative to DMSO (% of control); higher = more glutathione. On the procedure:
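Total intracellular glutathione (GSH + GSSG) in U-2 OS cells by GSH/GSSG-Glo after 24 h compound treatment at 5, 10 and 20 uM (some at 40 and 80 uM), as percent of DMSO control. Five technical replicate plates, averaged.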

On to `O=S1(=O)CC(Sc2cccs2)c2ccccc21` (centres undefined), for which the cell viability in assay [1] (5 µM) was determined as 103 ± 5.5; in assay [1] (10 µM) it was 100 ± 5.5; in assay [1] (20 µM), 104 ± 4.5. In addition, the relative cell count in assay [2] (0.625 µM) amounted to 1.02; in assay [2] (1.25 µM), 0.974; in assay [2] (2.5 µM) it was 0.948; in assay [2] (5 µM), 1; in assay [2] (10 µM), 0.984; in assay [2] (20 µM), 0.61. In addition, the “cell painting activity score” value in assay [3] (0.625 µM) worked out at 3.43; in assay [3] (1.25 µM), 3.86; in assay [3] (2.5 µM), 4.15; in assay [3] (5 µM) it was 3.78; in assay [3] (10 µM), 3.12; in assay [3] (20 µM), 10.7. For the same compound, the “intracellular GSH:GSSG ratio” value in assay [4] (5 µM) is 25.2; in assay [4] (10 µM), 24.8; in assay [4] (20 µM), 30. Also, the total intracellular glutathione was 115 ± 4.9 in assay [5] (5 µM), 107 ± 9.4 in assay [5] (10 µM) and 120 ± 8.6 in assay [5] (20 µM).
Turning to `O=S1(=O)CC(SCc2ccccc2)c2ccccc21` (centres undefined), the cell viability was found to be 107 ± 2.6 in assay [1] (5 µM), 104 ± 5.2 in assay [1] (10 µM) and 97.8 ± 5.9 in assay [1] (20 µM). Also, the relative cell count in assay [2] (0.625 µM) was 1.13; in assay [2] (1.25 µM) it was 1.12; in assay [2] (2.5 µM), 1.06; in assay [2] (5 µM), 1.07; in assay [2] (10 µM), 1.14; in assay [2] (20 µM), 1.12. For the same compound, the “cell painting activity score” value in assay [3] (0.625 µM) turned out to be 4.11; in assay [3] (1.25 µM), 4.32; in assay [3] (2.5 µM), 4.24; in assay [3] (5 µM) it was 4.29; in assay [3] (10 µM), 3.77; in assay [3] (20 µM) it was 3.73. Moreover, the “intracellular GSH:GSSG ratio” value in assay [4] (5 µM) is 30.3; in assay [4] (10 µM), 20.1; in assay [4] (20 µM), 26.3. Besides, the total intracellular glutathione was 105 ± 2.7 in assay [5] (5 µM), 98.7 ± 6.5 in assay [5] (10 µM) and 106 ± 6.4 in assay [5] (20 µM).
As to `O=[N+]([O-])c1ccc(-c2nnc(SC3=CS(=O)(=O)c4ccccc43)o2)cc1`, the figures for the cell viability in assay [1] (5 µM), in assay [1] (10 µM) and in assay [1] (20 µM) were 84.5 ± 5.8, 33.5 ± 5.2 and 49.4 ± 2.6, respectively. The relative cell count in assay [2] (0.625 µM) was 0.934; in assay [2] (1.25 µM), 0.893; in assay [2] (2.5 µM), 0.773; in assay [2] (5 µM) it was 0.394; in assay [2] (10 µM), 0.225; in assay [2] (20 µM) it was 0.29. The “cell painting activity score” value in assay [3] (0.625 µM) came out at 6.12; in assay [3] (1.25 µM), 8.55; in assay [3] (2.5 µM), 13.1; in assay [3] (5 µM) it was 17.1; in assay [3] (10 µM), 14.6; in assay [3] (20 µM) it was 17.5. In addition, the “intracellular GSH:GSSG ratio” value is 10.4 in assay [4] (5 µM), 3.4 in assay [4] (10 µM) and 3.08 in assay [4] (20 µM). Moreover, the total intracellular glutathione was 119 ± 3.7 in assay [5] (5 µM), 38.4 ± 3.2 in assay [5] (10 µM) and 46.6 ± 3.2 in assay [5] (20 µM).
As for `COc1cccc2c1C(=O)c1c(O)c3c(c(O)c1C2=O)C[C@@](O)(C(=O)CO)C[C@@H]3O[C@H]1C[C@H](N)[C@H](O)[C@H](C)O1`, the figures for the cell viability in assay [1] (5 µM), in assay [1] (10 µM) and in assay [1] (20 µM) were 54.3 ± 2.8, 38.7 ± 6.3 and 21.7 ± 1.3, respectively. The relative cell count in assay [2] (0.625 µM) was 0.473 ± 0.035; in assay [2] (1.25 µM), 0.5 ± 0.033; in assay [2] (2.5 µM), 0.431 ± 0.044; in assay [2] (5 µM) it was 0.404 ± 0.081; in assay [2] (10 µM), 0.311 ± 0.025; in assay [2] (20 µM), 0.2492 ± 0.0023. Moreover, the “cell painting activity score” value was determined as 15.7 ± 0.51 in assay [3] (0.625 µM); 17.8 ± 2.5 in assay [3] (1.25 µM); 18.5 ± 2.1 in assay [3] (2.5 µM); 19.7 ± 0.41 in assay [3] (5 µM); 20.8 ± 0.47 in assay [3] (10 µM); 24.3 ± 0.053 in assay [3] (20 µM). Moreover, the results for the “intracellular GSH:GSSG ratio” value in assay [4] (5 µM), in assay [4] (10 µM) and in assay [4] (20 µM) were 12.1, 13 and 5.76, respectively. Besides, the total intracellular glutathione in assay [5] (5 µM) was determined as 51.8 ± 7.2; in assay [5] (10 µM), 34.9 ± 5.7; in assay [5] (20 µM), 18.7 ± 1.3.
